5 molecules from patent US6831092B1 (priority 1999, dated 2004) can be followed below.

Where two headings read alike, the source gives them in different places.

Test [1] has as its system fungi of tomato late blight. The test is classed as in vivo, fungi of tomato late blight on tomato (cultivar: Ponderosa).
The test system of test [2] is fungi of cucumber downy mildew. Briefly: Test on preventive effect against cucumber downy mildew. The format is in vivo, fungi of cucumber downy mildew on cucumber (cultivar: Suyo). The source says:
Test on Preventive Effect Against Cucumber Downy Mildew
Cucumber (cultivar: Suyo) was cultivated in a polyethylene pot having a diameter of 7.5 cm, and when the cucumber reached a two-leaf stage, two seedlings of the cucumber were sprayed with a drug solution having predetermined concentrations of sample compounds in an amount of 1, 000 l/ha by a spray gun. On the next day after the treatment, the cucumber was sprayed and inoculated with a zoosporangia suspension of fungi of cucumber downy mildew, and the cucumber was kept in a moist chamber at 20° C. for 18 hours. Then, it was kept in a constant temperature chamber of 20° C. for from 6 to 7 days, and the average area of lesions on the first leaves of the two seedlings was examined to find the incidence according to the following formula. Here, the average area of lesions in the non-treated plot was obtained in the same manner as the treated plot, except that the cucumber was sprayed with water instead of the drug solution by a spray gun. […]
a: Average area of lesions in the treated plot b: Average area of lesions in the non-treated plot
Further, the theoretical value can be calculated from the following Colby's formula:
Theoretical value=(X×Y)/100
X: Incidence (%) in the case of treatment with the compound No. 1 alone Y: Incidence (%) in the case of treatment with the compound a, b, c or d alone When the experimental values are lower than the theoretical values by Colby's formula, the pesticidal composition of the present invention has a synergistic effect of controlling pests. The theoretical values by Colby's formula in such cases are shown in parenthesis ( ) in Tables 1 to 4.

`Cc1ccc(-c2c(Cl)nc(C#N)n2S(=O)(=O)N(C)C)cc1` [Compd. No. 1, 4-chloro-2-cyano-1-dimethylsulfamoyl-5-(4-methylphenyl)imidazole]: the “Incidence of tomato late blight” value in test [1] (Compd. No. 1 0.062 ppm alone (Compd. a 0 ppm), Table 5) is 91.3%; in test [1] (Compd. No. 1 0.062 ppm alone (Compd. b 0 ppm), Table 6), 90.6%; in test [1] (Compd. No. 1 0.062 ppm alone (Compd. c 0 ppm), Table 7), 65.6%; in test [1] (Compd. No. 1 0.125 ppm alone (Compd. c 0 ppm), Table 7) it was 37.5%; in test [1] (Compd. No. 1 0.125 ppm alone (Compd. d 0 ppm), Table 8) it was 100%; in test [1] (Compd. No. 1 0.25 ppm alone (Compd. a 0 ppm), Table 5) it was 25.6%. Moreover, the “Incidence of tomato late blight” value in test [1] (Compd. No. 1 0.25 ppm alone (Compd. b 0 ppm), Table 6) was determined as 78.1%; in test [1] (Compd. No. 1 0.25 ppm alone (Compd. c 0 ppm), Table 7), 21.9%; in test [1] (Compd. No. 1 0.25 ppm alone (Compd. d 0 ppm), Table 8), 100%; in test [1] (Compd. No. 1 0.50 ppm alone (Compd. b 0 ppm), Table 6), 50.0%; in test [1] (Compd. No. 1 0.50 ppm alone (Compd. c 0 ppm), Table 7), 6.3%; in test [1] (Compd. No. 1 0.5 ppm alone (Compd. d 0 ppm), Table 8), 83.4%. Further, the “Incidence of tomato late blight” value in test [1] (Compd. No. 1 1.125 ppm alone (Compd. a 0 ppm), Table 5) is 69.2%; in test [1] (Compd. No. 1 1.125 ppm alone (Compd. b 0 ppm), Table 6), 87.5%. For the same molecule, the “Incidence of cucumber downy mildew” value in test [2] (Compd. No. 1 0.06 ppm alone (Compd. d 0 ppm), Table 4) came to 85%; in test [2] (Compd. No. 1 0.062 ppm alone (Compd. a 0 ppm), Table 1), 87.6%; in test [2] (Compd. No. 1 0.062 ppm alone (Compd. b 0 ppm), Table 2), 84.6%; in test [2] (Compd. No. 1 0.062 ppm alone (Compd. c 0 ppm), Table 3), 25.4%; in test [2] (Compd. No. 1 0.125 ppm alone (Compd. a 0 ppm), Table 1), 20.5%; in test [2] (Compd. No. 1 0.125 ppm alone (Compd. b 0 ppm), Table 2), 56.7%. For the same molecule, the “Incidence of cucumber downy mildew” value in test [2] (Compd. No. 1 0.125 ppm alone (Compd. c 0 ppm), Table 3) is 2.5%; in test [2] (Compd. No. 1 0.25 ppm alone (Compd. a 0 ppm), Table 1) it was 5.1%; in test [2] (Compd. No. 1 0.25 ppm alone (Compd. c 0 ppm), Table 3) it was 2.5%; in test [2] (Compd. No. 1 0.25 ppm alone (Compd. d 0 ppm), Table 4), 5.0%; in test [2] (Compd. No. 1 0.5 ppm alone (Compd. d 0 ppm), Table 4), 2.5%; in test [2] (Compd. No. 1 1 ppm alone (Compd. d 0 ppm), Table 4), 0%.

As for `CSC1=N[C@@](C)(c2ccccc2)C(=O)N1Nc1ccccc1` [Compd. a, (S)-5-methyl-2-methylthio-5-phenyl-3-phenylamino-3.5-dihydroimidazole-4-one], the “Incidence of tomato late blight” value in test [1] (Compd. a 0.062 ppm alone (Compd. No. 1 0 ppm), Table 5) is recorded as 100%; in test [1] (Compd. a 0.125 ppm alone (Compd. No. 1 0 ppm), Table 5), 97.2%; in test [1] (Compd. a 0.25 ppm alone (Compd. No. 1 0 ppm), Table 5), 94.4%; in test [1] (Compd. a 0.5 ppm alone (Compd. No. 1 0 ppm), Table 5), 66.1%; in test [1] (Compd. a 1 ppm alone (Compd. No. 1 0 ppm), Table 5) it was 53.5%. Also, the “Incidence of cucumber downy mildew” value in test [2] (Compd. a 0.25 ppm alone (Compd. No. 1 0 ppm), Table 1) was 82.1%; in test [2] (Compd. a 0.5 ppm alone (Compd. No. 1 0 ppm), Table 1), 66.7%; in test [2] (Compd. a 1 ppm alone (Compd. No. 1 0 ppm), Table 1), 12.8%.

Turning to `Cc1ccc(C(C)NC(=O)[C@@H](NC(=O)OC(C)C)C(C)C)cc1` (stereo partly drawn) [Compd. b, isopropyl 2-methyl-1-((1-p-tolylethyl)carbamoyl)-(S)-propylcarbamate], the “Incidence of tomato late blight” value was 100% in test [1] (Compd. b 1 ppm alone (Compd. No. 1 0 ppm), Table 6); 71.9% in test [1] (Compd. b 4 ppm alone (Compd. No. 1 0 ppm), Table 6); 46.9% in test [1] (Compd. b 8 ppm alone (Compd. No. 1 0 ppm), Table 6). Besides, the “Incidence of cucumber downy mildew” value in test [2] (Compd. b 2 ppm alone (Compd. No. 1 0 ppm), Table 2) is recorded as 87.6%; in test [2] (Compd. b 4 ppm alone (Compd. No. 1 0 ppm), Table 2), 67.0%; in test [2] (Compd. b 8 ppm alone (Compd. No. 1 0 ppm), Table 2) it was 46.4%; in test [2] (Compd. b 16 ppm alone (Compd. No. 1 0 ppm), Table 2), 15.5%.

Regarding `CCNc1nc(CC)c(C(=O)NC(C#N)c2cccs2)s1` (centres unmarked) [Compd. d, N-(a-cyano-2-thienyl)-4-ethyl-2-(ethylamino)-5-thiazole carboxyamide], the “Incidence of tomato late blight” value in test [1] (Compd. d 4 ppm alone (Compd. No. 1 0 ppm), Table 8) worked out at 75%; in test [1] (Compd. d 8 ppm alone (Compd. No. 1 0 ppm), Table 8), 29.2%; in test [1] (Compd. d 16 ppm alone (Compd. No. 1 0 ppm), Table 8), 16.5%. Also, the “Incidence of cucumber downy mildew” value in test [2] (Compd. d 1 ppm alone (Compd. No. 1 0 ppm), Table 4) came out at 100%; in test [2] (Compd. d 8 ppm alone (Compd. No. 1 0 ppm), Table 4) it was 15%; in test [2] (Compd. d 16 ppm alone (Compd. No. 1 0 ppm), Table 4), 20%.

With `CCC(C)(NC(=O)c1cc(Cl)c(C)c(Cl)c1)C(=O)CCl` (centres unmarked) [Compd. c, 3.5-dichloro-N-(3-chloro-1-ethyl-1-methyl-2-oxopropyl)-4-methylbenzamide], the “Incidence of tomato late blight” value in test [1] (Compd. c 1 ppm alone (Compd. No. 1 0 ppm), Table 7) worked out at 62.5%; in test [1] (Compd. c 4 ppm alone (Compd. No. 1 0 ppm), Table 7), 62.5%; in test [1] (Compd. c 8 ppm alone (Compd. No. 1 0 ppm), Table 7), 31.3%. The “Incidence of cucumber downy mildew” value in test [2] (Compd. c 0.5 ppm alone (Compd. No. 1 0 ppm), Table 3) came to 95.8%; in test [2] (Compd. c 1 ppm alone (Compd. No. 1 0 ppm), Table 3), 71.2%; in test [2] (Compd. c 2 ppm alone (Compd. No. 1 0 ppm), Table 3), 61.0%.
